Earlier results in the CATMoS acute toxicity set (Mansouri et al. 2021).
Where “and” joins values, the source holds several entries; their conditions need not be identical. Equal values may be shown once.

assay: rat acute oral toxicity; settings: in vivo

SMILES | LD50
FC(F)(F)c1nc2ccc(Cl)cc2[nH]1 | 6.82 mg/kg
NNc1ccccc1 | 188 mg/kg
CCC(=C(c1ccc(OCCN(C)C)cc1)c1ccc(OP(=O)(O)O)cc1)c1ccc(C(C)C)cc1 | 785 mg/kg
CC(=O)CCc1ccc(OC(C)=O)cc1 | 3040 mg/kg
O=[N+]([O-])c1cc2c(ccc3ccccc32)o1 | 439 mg/kg
CN1CCN(C(=O)OC2c3nccnc3C(=O)N2c2ccc(Cl)cn2)CC1 (stereo unspecified) | 827 mg/kg
C[C@H]1CC[C@@H]2[C@@H](C)[C@H]3[C@H](C[C@H]4[C@@H]5CC=C6CC(O[C@@H]7O[C@H](CO)[C@H](O)[C@H](O[C@@H]8O[C@H](CO)[C@@H](O)[C@H](O)[C@H]8O)[C@H]7O[C@H]7O[C@@H](C)[C@H](O)[C@@H](O)[C@H]7O)CC[C@]6(C)[C@H]5CC[C@]34C)N2C1 (stereo partly specified) | 590 mg/kg
CS(=O)C(C)(C)C(=O)O (stereo unspecified) | 7500 mg/kg
CC[C@H](OC(C)=O)C(C[C@H](C)N(C)C)(c1ccccc1)c1ccccc1 | 29 mg/kg
N#CCCN(CCN)CCN | 4550 mg/kg
CCCCC[C@H](O)/C=C/[C@H]1[C@H](O)CC(=O)[C@@H]1C/C=C\CCCC(=O)O | 500 mg/kg
Cc1cc(C)cc(O)c1 | 608 mg/kg
OC(CCN1CCCCC1)(c1ccccc1)C1CC2C=CC1C2 (stereo unspecified) | 750 mg/kg
CCCCN(CCO)CCCC | 1070 mg/kg
C=CC(=O)NCC(OC)OC | 1200 mg/kg
Nc1ccc2c3c([nH]c2c1)CCCC3 | 290 mg/kg
COc1cc([C@@H]2c3cc4c(cc3C(O[C@@H]3O[C@@H]5CO[C@@H](C)O[C@H]5[C@H](O)[C@H]3O)C3COC(=O)[C@@H]32)OCO4)cc(OC)c1O (stereo partly specified) | 1780 mg/kg
CC(C)COC(=O)c1ccccc1O | 1560 mg/kg
C1CCCNCC1 | 20.7 mg/kg
O=[N+]([O-])c1cccc2nc3ccccc3c(NCCN(CCO)CCO)c12 | 176 mg/kg
CCCCOCC(O)COc1ccccc1 (stereo unspecified) | 2370 mg/kg
CCN(CC)CCNc1ccc(CO)c2sc3ccccc3c(=O)c12 | 980 mg/kg
c1ccc(-c2cccc(-c3ccccc3)c2)cc1 | 2400 mg/kg

SMILES | LD50
O=S1(=O)CC=CC1 | 2550 mg/kg
CC(C)c1ccc(-c2ccccc2)cc1 | 8500 mg/kg
CCN(CC)C(=O)[C@]1(c2ccccc2)C[C@@H]1CN | 213 mg/kg
CC(C)(N)CCCCCCCCCCOCCO | 1850 mg/kg
CCCCNc1ccccc1 | 1620 mg/kg
N#CCCNC(=O)CCl | 410 mg/kg
FC(F)(F)c1ccccc1Br | 2720 mg/kg
CCCCOCCOC(=O)CCCCC(=O)OCCOCCCC | 1100 mg/kg
CC(CCc1ccc(O)cc1)NCCc1ccc(O)c(O)c1 (stereo unspecified) | 2300 mg/kg
COC(=O)C(C)N(C(=O)c1ccccc1)c1ccc(F)c(Cl)c1 (stereo unspecified) | 1200 mg/kg
O=C(COc1ccc(Cc2ccc(Cl)cc2)cc1)OCc1cccnc1 | 2700 mg/kg
[N-]=[N+]=NC1CCCCC1=NO (stereo unspecified) | 1120 mg/kg
CCC(SC(C)=NOC(=O)NC)C(N)=O (stereo unspecified) | 14.1 mg/kg
C=CCOC(=O)/C=C\C(=O)OCC=C | 300 mg/kg
C=CCC1=C(C)[C@@H](OC(=O)[C@@H]2[C@@H](C=C(C)C)C2(C)C)CC1=O | 430 mg/kg
COP(=O)(OC)OC(Cl)C(Cl)(Cl)Cl (stereo unspecified) | 14 mg/kg
CS(=O)(=O)O | 6170 mg/kg
CN1CCCCC1CCN1c2ccccc2Sc2ccc(Br)cc21 (stereo unspecified) | 900 mg/kg
CCOc1ccc(F)cc1C(CN(C)C)C(C)CC (stereo unspecified) | 324 mg/kg
COC(=O)C1CCC(C(=O)OC)CC1 (stereo unspecified) | 2810 mg/kg
O=C=Nc1ccc(Cl)c(C(F)(F)F)c1 | 500 mg/kg
CC1=CCC(C(C)C)=CC1 | 3650 mg/kg
CCCC[N+](CCCC)(CCCC)CCCC | 1990 mg/kg

SMILES | LD50
CCS(=O)(=O)CCSP(=O)(OC)OC | 32.4 mg/kg
CCC(O)C(c1ccccc1)N1CCN(CCOc2ccccc2C)CC1 (stereo unspecified) | 700 mg/kg
CN(C)CCN1C(=O)c2ccccc2Nc2cc(Cl)ccc21 | 242 mg/kg
CNC(=O)ON=C1SC(=NC(C)C)SC1(C)C | 8.9 mg/kg
O=C1OC2(c3ccc(O)cc3Oc3cc(O)ccc32)c2ccccc21 | 6720 mg/kg
C=C(C)C(=O)OC(=O)COC(C)C | 9000 mg/kg
Cc1c(Cl)c(Cl)c(Cl)c(C(Cl)Cl)c1Cl | 2920 mg/kg
Cc1ccc(N(SC(F)(Cl)Cl)S(=O)(=O)N(C)C)cc1 | 1000 mg/kg
OC(c1ccccc1)(c1ccccc1)C1CN2CCC1CC2 (stereo unspecified) | 440 mg/kg
COc1ccc([N+](=O)[O-])cc1CNCCO | 30 mg/kg
O=C(O)CCCCCCCCCl | 3000 mg/kg
ClCCC[Si](Cl)(Cl)Cl | 200 mg/kg
C#CC(C)(CCC=C(C)C)OC(C)=O (stereo unspecified) | 9620 mg/kg
CC(C)[C@@]1(O)[C@@H](OC(=O)c2ccc[nH]2)[C@@]2(O)[C@@]3(C)C[C@]4(O)O[C@@]5([C@H](O)[C@@H](C)CC[C@]35O)[C@@]2(O)[C@@]14C | 750 mg/kg
N#Cc1cc([N+](=O)[O-])ccc1N | 3880 mg/kg
CC(C)OC(=O)OOC(=O)OC(C)C | 2140 mg/kg
CC(C)(CO)S(C)(=O)=O | 11300 mg/kg
Nc1nc2cc(I)ccc2o1 | 1000 mg/kg
CCN(CC)CCNC(=O)COc1cc(OC)c(OC)c(OC)c1 | 1760 mg/kg
COc1ccc(-c2nc3ccc(C4=NNC(=O)CC4C)cc3[nH]2)cc1 (stereo unspecified) | 950 mg/kg
COc1cc2ccc(=O)oc2cc1O | 3800 mg/kg
COc1ccc(C[C@H]2NC[C@H](O)[C@H]2OC(C)=O)cc1 | 72 mg/kg
CCN1C[C@H]2CN(C)C[C@@H](C1)C2OC(=O)c1ccc(Cl)cc1 (stereo partly specified) | 383 mg/kg

SMILES | LD50
O=C(O)c1nn(Cc2ccc(Cl)cc2)c2ccccc12 | 1140 mg/kg
CN(N=O)c1cccnc1 | 10 mg/kg
CC(O)CC=O (stereo unspecified) | 2180 mg/kg
CCOC(=O)c1c[n+](C)c2n(c1=O)C(C)CCC2 (stereo unspecified) | 1500 mg/kg
CNCCC=C1c2ccccc2CCc2ccccc21 | 502 mg/kg and 405 mg/kg
CN(C)Cc1ccccc1 | 265 mg/kg
C[C@@H]1C[C@H]2[C@@H]3C[C@H](F)C4=CC(=O)C=C[C@]4(C)[C@H]3[C@@H](O)C[C@]2(C)[C@H]1C(=O)CO | 245 mg/kg
C1CN(CCOCCN2CCOCC2)CCO1 | 2020 mg/kg
FC(F)(F)c1nc2c(Br)ccc(Br)c2[nH]1 | 18 mg/kg
Cc1onc2c(=O)n(-c3ccccc3)nc(-c3ccccc3)c12 | 1000 mg/kg
C[C@H](CCC(=O)O)[C@H]1CC[C@H]2[C@@H]3[C@@H](O)C[C@@H]4C[C@H](O)CC[C@]4(C)[C@H]3CC[C@]12C | 4600 mg/kg
C=C1C[C@]23C[C@@]1(O)CC[C@H]2[C@@]12C=C[C@H](O)[C@@](C)(C(=O)O1)[C@H]2[C@@H]3C(=O)O | 6300 mg/kg
Cn1c(=O)c2c(nc(Cc3ccc(N)cc3)n2C)n(C)c1=O | 383 mg/kg
C1CCC(C(CC2CCCCN2)C2CCCCC2)CC1 (stereo unspecified) | 2150 mg/kg
CCNc1nc(=O)nc(NC(C)(C)C(=O)O)[nH]1 | 789 mg/kg
Nc1ccc(C(F)(F)F)c(NC(=O)c2cccnc2)c1 | 800 mg/kg
O=C1c2cccc(Br)c2C(=O)C1c1ccccc1 (stereo unspecified) | 745 mg/kg
CCC(CC)C(=O)O | 2200 mg/kg
Nc1cccc(-n2ccccc2=O)c1 | 2300 mg/kg
CCCCC(CC)COC(N)=O (stereo unspecified) | 3150 mg/kg
Cn1c(=O)sc2cccc(Cl)c21 | 1940 mg/kg
CN(C1CCCCC1)C1CCCCC1 | 446 mg/kg
Cc1cccc(C)c1NC(=O)c1cc(S(N)(=O)=O)c(Cl)cc1O | 1640 mg/kg

SMILES | LD50
CCC(=O)OC1(c2ccccc2)CCN(C)C1C (stereo unspecified) | 253 mg/kg
CC(O)C1CCCCC1 (stereo unspecified) | 2100 mg/kg
CN1CCC(=C2c3ccccc3CC(=O)c3sccc32)CC1 | 360 mg/kg
CC[N+](CC)(CCNC(=O)C(=O)NCC[N+](CC)(CC)Cc1ccccc1Cl)Cc1ccccc1Cl | 18.5 mg/kg
CCCCCOC(C[n+]1ccccc1)c1ccc(C(C)C)cc1 (stereo unspecified) | 250 mg/kg
CC(C)COC(=O)C(C)C | 12800 mg/kg
Cc1ccc(/N=C/NSN(Cc2ccccc2)Cc2ccccc2)c(C)c1 | 1050 mg/kg
CS/C(C)=N/OC(=O)N(C)SN(C)C(=O)O/N=C(\C)SC | 66 mg/kg
O=C(CCCN1CCN(C(=O)OC2CCCCC2)CC1)c1ccc(F)cc1 | 1080 mg/kg
c1ccc2[nH]ccc2c1 | 1000 mg/kg
CCOC(C1=NCCCN1)c1c(Cl)cccc1Cl (stereo unspecified) | 625 mg/kg
CNC(=O)O/N=C/C(C)(C)S(C)=O (stereo unspecified) | 0.49 mg/kg
Nc1ncnc2c1ncn2[C@]1(CO)O[C@H](CO)[C@@H](O)[C@H]1O | 10000 mg/kg
O=P(OCC(Cl)CCl)(OCC(Cl)CCl)OCC(Cl)CCl (stereo unspecified) | 2830 mg/kg
O=C1c2ccccc2C(=O)c2c1ccc1c2[nH]c2ccc3c4ccc5c6c(ccc(c(=O)c3c21)c46)c1ccc2c(=O)c3ccccc3c3nn5c1c23 | 11200 mg/kg
NCCCC[C@H](N)C(=O)O | 11400 mg/kg and 10000 mg/kg
Cc1nn(C)c(=O)c2noc(C)c12 | 1000 mg/kg
O=C(O)Cc1ccccc1Nc1c(Cl)cc(O)cc1Cl | 190 mg/kg
Nc1cc2c(S(=O)(=O)O)cc(S(=O)(=O)O)cc2cc1S(=O)(=O)O | 13000 mg/kg
COC(=O)C(c1ccccc1)C1CCCCN1 (stereo unspecified) | 367 mg/kg and 350 mg/kg
CC(C)=NNC(=O)CSc1cc(Oc2ccccc2)ncn1 | 1080 mg/kg
[O-][n+]1c2ccccc2nc2ccccc21 | 6600 mg/kg
CC(=O)OC(C)C(Cl)(Cl)Cl (stereo unspecified) | 900 mg/kg

SMILES | LD50
COP(=O)(OC)Oc1ccc([N+](=O)[O-])cc1 | 3.27 mg/kg
Cc1cccc(NC(=S)N(C)C)c1 | 2200 mg/kg
NC[C@H]1CC[C@H](C(=O)Oc2ccc(CCC(=O)O)cc2)CC1 | 1500 mg/kg
OC(c1ccccc1)(c1ccc(Cl)cc1)C1CCCCN1 (stereo unspecified) | 400 mg/kg
Cc1cccc(CN(C)N=O)c1 | 600 mg/kg
CNc1ccc(C(O)(c2ccc(N(C)C)cc2)c2ccc(N(C)C)cc2)cc1 | 500 mg/kg
C=CCN1CCc2nc(N)sc2CC1 | 403 mg/kg
CCOP(=S)(OCC)Oc1ccc2c3c(c(=O)oc2c1)CCCC3 | 67 mg/kg
CN1CCN(C2=Cc3ccccc3Oc3ccc(Cl)cc32)CC1 | 231 mg/kg
F[Si](F)(F)c1ccccc1 | 310 mg/kg
CCCCC(CC)COC(C[n+]1ccccc1)c1ccc(C2CCCCC2)cc1 (stereo unspecified) | 250 mg/kg
CCCCOC(=O)c1c[n+](C)c2n(c1=O)C(C)CCC2 (stereo unspecified) | 1370 mg/kg
CC(N)CNCCCO (stereo unspecified) | 5660 mg/kg
CCN(CC)N=Nc1ccccc1 | 520 mg/kg
COCCOC(=O)c1ccccc1C(=O)OCCOC | 4400 mg/kg
Cc1cccc(NC(=O)c2ccccc2C(=O)O)c1 | 5230 mg/kg
CCCCNC1(P(=O)(OCCCC)OCCCC)CCCCC1 | 3000 mg/kg
COc1c(F)c(F)c2[nH]c(C(F)(F)F)nc2c1F | 2.89 mg/kg
CCc1ccc(CCO)nc1 | 4290 mg/kg
CN(c1nc2ccccc2s1)C1CCN(CCCCOc2ccc(F)cc2)CC1 | 154 mg/kg
N#CSc1cccc(C(=O)O)c1 | 73 mg/kg
